Source: US20250115597A1, “TYK2 INHIBITORS AND COMPOSITIONS AND METHODS THEREOF” (LYNK PHARMACEUTICALS CO. LTD., priority 2021, published 2025)

The compounds below were run against T1, Ba/F3-FL-TYK2-P760L cells (Homo sapiens, UniProt P29597, P760L, cells depend on it) (assay: Anti-proliferative assay, Ba/F3-FL-TYK2-P760L cells (Cell-Titer Glo)). Conditions: 72 h, read-out: BaF3-FL-T2P760L IC50.
T1 construct: BaF3-FL-T2P760L (nM)
Type: cell-based
Description: Anti-Proliferative Assay Dimerization domain of Tel protein fused with JAK kinase domain was permanently transduced into Ba/F3 cells, whose proliferation is dependent on JAK activity in the absence of IL-3 induction. These engineered Ba/F3 cells (Ba/F3-FL-TYK2-[…], Ba/F3-TEL-TYK2 and Ba/F3-TEL-JAK2) were used to monitor JAK inhibitory activities of the compounds in the cellular. […] Cells were seeded at 2000/well of white flat bottom 96-well plates. The well containing medium only was used as background control. After 24 h growth, cells were treated with compounds. The test compounds were dissolved in DMSO to a stock concentration of 20 mM. 3-fold serially diluted compounds for 9 concentrations with top concentration of 20 μM was added into the each well. […] The cells continued to grow at 37° C. in 5% CO2 for 72 h after compound treatment. The viability was measured by cellular ATP determination using the Cell-Titer Glo luciferase reagent (Promega). The Luminescence value was recorded by a multi-label reader Envision (PerkinElmer).

T1 sequence (P29597 whole entry P760L): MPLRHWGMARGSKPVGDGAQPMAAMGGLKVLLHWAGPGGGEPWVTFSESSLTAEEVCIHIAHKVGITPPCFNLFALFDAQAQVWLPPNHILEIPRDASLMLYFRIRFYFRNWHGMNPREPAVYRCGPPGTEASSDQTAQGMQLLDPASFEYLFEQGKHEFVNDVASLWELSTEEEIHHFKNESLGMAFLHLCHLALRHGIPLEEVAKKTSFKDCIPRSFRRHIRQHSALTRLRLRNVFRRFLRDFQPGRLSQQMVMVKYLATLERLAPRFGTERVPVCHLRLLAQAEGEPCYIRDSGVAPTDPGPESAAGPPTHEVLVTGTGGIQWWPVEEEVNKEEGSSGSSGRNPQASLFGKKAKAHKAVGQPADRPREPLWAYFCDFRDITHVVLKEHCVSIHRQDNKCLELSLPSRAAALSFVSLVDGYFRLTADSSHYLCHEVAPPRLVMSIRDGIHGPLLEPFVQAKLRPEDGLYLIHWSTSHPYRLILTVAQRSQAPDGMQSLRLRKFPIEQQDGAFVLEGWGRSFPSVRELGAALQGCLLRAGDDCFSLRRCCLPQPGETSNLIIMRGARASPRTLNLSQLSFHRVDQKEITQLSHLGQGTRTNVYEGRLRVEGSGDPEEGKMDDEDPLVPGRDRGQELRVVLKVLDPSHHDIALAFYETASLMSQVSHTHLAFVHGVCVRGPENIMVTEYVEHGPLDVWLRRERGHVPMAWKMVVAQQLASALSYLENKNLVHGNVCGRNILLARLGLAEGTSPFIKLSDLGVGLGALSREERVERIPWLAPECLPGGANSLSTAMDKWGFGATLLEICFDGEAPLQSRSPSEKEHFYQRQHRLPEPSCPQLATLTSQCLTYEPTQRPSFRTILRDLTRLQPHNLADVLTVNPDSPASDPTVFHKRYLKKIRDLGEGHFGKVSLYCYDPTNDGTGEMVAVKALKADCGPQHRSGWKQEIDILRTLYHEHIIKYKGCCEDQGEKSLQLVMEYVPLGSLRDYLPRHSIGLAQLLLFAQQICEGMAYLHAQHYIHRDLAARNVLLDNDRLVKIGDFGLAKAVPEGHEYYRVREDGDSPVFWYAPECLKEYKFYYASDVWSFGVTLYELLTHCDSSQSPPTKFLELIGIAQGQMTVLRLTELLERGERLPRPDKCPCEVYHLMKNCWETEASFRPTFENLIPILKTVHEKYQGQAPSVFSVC

| Compound | GI50 |
| --- | --- |
| [2H]C([2H])([2H])NC(=O)c1cnc(NC(=O)[C@H]2C[C@H](C#N)C2)cc1Nc1ccc2cnn(CC)c2c1OC [Example 128B, 6-((Trans)-3-cyanocyclobutane-1-carboxamido)-4-((1-ethyl-7-methoxy-1H-indazol-6-yl)amino)-N-(methyl-d3)nicotinamide] | 1710 nM |
| [2H]C([2H])([2H])NC(=O)c1cnc(NC(=O)C2CC2)cc1Nc1cn(C)c2ccn([C@@H]3CCOC3)c(=O)c12 [Example 114, (R)-6-(cyclopropanecarboxamido)-N-(methyl-d3)-4-((1-methyl-4-oxo-5-(tetrahydrofuran-3-yl)-4,5-dihydro-1H-pyrrolo[3,2-c]pyridin-3-yl)amino)nicotinamide] | 1100 nM |
| CNC(=O)c1nnc(NC(=O)C2CC2)cc1Nc1cccc2cc[nH]c(=O)c12 [Example 26, 6-(Cyclopropanecarboxamido)-N-methyl-4-((1-oxo-1,2-dihydroisoquinolin-8-yl)amino)pyridazine-3-carboxamide] | > 20000 nM |
| [2H]C([2H])([2H])NC(=O)c1cnc(NC(=O)C2CC2)cc1Nc1ccc2cnn(C3CC3)c2c1OC [Example 143, 6-(Cyclopropanecarboxamido)-4-((1-cyclopropyl-7-methoxy-1H-indazol-6-yl)amino)-N-(methyl-d3)nicotinamide] | 108 nM |
| [2H]C([2H])([2H])NC(=O)c1cnc(Nc2ccc(F)cc2F)nc1Nc1cccc(-c2ncn(C)n2)c1OC [Example 63, 2-((2,4-Difluorophenyl)amino)-4-((2-methoxy-3-(1-methyl-1H-1,2,4-triazol-3-yl)phenyl)amino)-N-(methyl-d3)pyrimidine-5-carboxamide] | 796 nM |
| [2H]C([2H])([2H])NC(=O)c1cnc(NC(=O)C2CC2)cc1Nc1ccc2cnn(C3CCOCC3)c2c1OC [Example 127, 6-(Cyclopropanecarboxamido)-4-((7-methoxy-1-(tetrahydro-2H-pyran-4-yl)-1H-indazol-6-yl)amino)-N-(methyl-d3)nicotinamide] | 378 nM |
| CNC(=O)c1cnc(NC(=O)C2CC2)cc1Nc1cccc(OC2CCOCC2)c1OC [Example 13, 6-(Cyclopropanecarboxamido)-4-((2-methoxy-3-((tetrahydro-2H-pyran-4-yl)oxy)phenyl)amino)-N-methylnicotinamide] | 6410 nM |
| [2H]C([2H])([2H])NC(=O)c1cnc(Nc2ccn(C3CC3)n2)cc1Nc1ccc2cnn(CC)c2c1OC [Example 138, 6-((1-Cyclopropyl-1H-pyrazol-3-yl)amino)-4-((1-ethyl-7-methoxy-1H-indazol-6-yl)amino)-N-(methyl-d3)nicotinamide] | 88.8 nM |
| [2H]C([2H])([2H])NC(=O)c1cnc(NC(=O)C2CC2)cc1Nc1ccc2cnn(CCOC)c2c1OC [Example 130, 6-(Cyclopropanecarboxamido)-4-((7-methoxy-1-(2-methoxyethyl)-1H-indazol-6-yl)amino)-N-(methyl-d3)nicotinamide] | 357 nM |
| [2H]C([2H])([2H])NC(=O)c1cnc(NC(=O)C2CC2)cc1Nc1cc(F)c2cnn(C([2H])([2H])C([2H])([2H])[2H])c2c1OC [Example 142, 6-(Cyclopropanecarboxamido)-4-((1-(ethyl-d5)-4-fluoro-7-methoxy-1H-indazol-6-yl)amino)-N-(methyl-d3)nicotinamide] | 169 nM |
| [2H]C([2H])([2H])NC(=O)c1cnc(NC(=O)C2CC2)cc1Nc1cn(C([2H])([2H])[2H])c2ccn(C(C)C(F)(F)F)c(=O)c12 (stereo not drawn) [Example 199, 6-(Cyclopropanecarboxamido)-N-(methyl-d3)-4-((1-(methyl-d3)-4-oxo-5-(1,1,1-trifluoropropan-2-yl)-4,5-dihydro-1H-pyrrolo[3,2-c]pyridin-3-yl)amino)nicotinamide] | 175 nM |
| CNC(=O)c1cnc(NC(=O)C2CC2)nc1Nc1cn(C)c2ccn(C)c(=O)c12 [Example 1, 2-(Cyclopropanecarboxamido)-4-((1,5-dimethyl-4-oxo-4,5-dihydro-1H-pyrrolo[3,2-c]pyridin-3-yl)amino)-N-methylpyrimidine-5-carboxamide] | 483 nM |
| [2H]C([2H])([2H])NC(=O)c1cnc(NC(=O)C2CC2)cc1Nc1ccc2nnn(CC)c2c1OC [Example 164, 6-(Cyclopropanecarbonylamino)-4-[(3-ethyl-4-methoxy-benzotriazol-5-yl)amino]-N-(trideuteriomethyl)pyridine-3-carboxamide] | 349 nM |
| [2H]C([2H])([2H])NC(=O)c1cnc(NC(=O)[C@H]2C[C@@H](C#N)C2)cc1Nc1ccc2cnn(CC)c2c1OC [Example 128A, 6-((Cis)-3-cyanocyclobutane-1-carboxamido)-4-((1-ethyl-7-methoxy-1H-indazol-6-yl)amino)-N-(methyl-d3)nicotinamide] | 736 nM |
| [2H]C([2H])([2H])NC(=O)c1cnc(NC(=O)C2CC2)cc1Nc1cn(C)c2ccn(CC3CC3)c(=O)c12 [Example 106, 6-(Cyclopropanecarboxamido)-4-((5-(cyclopropylmethyl)-1-methyl-4-oxo-4,5-dihydro-1H-pyrrolo[3,2-c]pyridin-3-yl)amino)-N-(methyl-d3)nicotinamide] | 206 nM |
| [2H]C([2H])([2H])NC(=O)c1cnc(NC(=O)[C@@H]2C[C@@H]2F)cc1Nc1cn(C)c2ccn(CC)c(=O)c12 [Example 102, 4-[(5-Ethyl-1-methyl-4-oxo-pyrrolo[3,2-c]pyridin-3-yl)amino]-6-[[(1S,2S)-2-fluorocyclopropanecarbonyl]amino]-N-(methyl-d3)pyridine-3-carboxamide] | 807 nM |
| CCn1ncc2scc(Nc3cc(NC(=O)C4CC4)ncc3C(=O)OC)c2c1=O [Example 178, Methyl 6-(cyclopropanecarboxamido)-4-((5-ethyl-4-oxo-4,5-dihydrothieno[2,3-d]pyridazin-3-yl)amino)nicotinate] | 287 nM |
| [2H]C([2H])([2H])NC(=O)c1cnc(NC(=O)C2CC2)cc1Nc1csc2c(Cl)cn(C(C)C)c(=O)c12 [Example 175, 4-((7-Chloro-5-isopropyl-4-oxo-4,5-dihydrothieno[3,2-c]pyridin-3-yl)amino)-6-(cyclopropanecarboxamido)-N-(methyl-d3)nicotinamide] | 124 nM |
| [2H]C([2H])([2H])NC(=O)c1cnc(NC(=O)C2CC2)cc1Nc1csc2cnn(CC(C)OC)c(=O)c12 (stereo not drawn) [Example 181, 6-(Cyclopropanecarboxamido)-4-((5-(2-methoxypropyl)-4-oxo-4,5-dihydrothieno[2,3-d]pyridazin-3-yl)amino)-N-(methyl-d3)nicotinamide] | 1900 nM |
| [2H]C([2H])([2H])NC(=O)c1cnc(NC(=O)C2CC2)cc1Nc1nn(CCOC)c2ccn(CC(F)(F)F)c(=O)c12 [Example 54, 6-(Cyclopropanecarboxamido)-4-((1-(2-methoxyethyl)-4-oxo-5-(2,2,2-trifluoroethyl)-4,5-dihydro-1H-pyrazolo[4,3-c]pyridin-3-yl)amino)-N-(methyl-d3)nicotinamide] | 1090 nM |
| [2H]C([2H])([2H])NC(=O)c1cnc(Nc2cc(C)c(F)cn2)nc1Nc1cccc(-c2ncn(C)n2)c1OC [Example 59, 2-((5-Fluoro-4-methylpyridin-2-yl)amino)-4-((2-methoxy-3-(1-methyl-1H-1,2,4-triazol-3-yl)phenyl)amino)-N-(methyl-d3)pyrimidine-5-carboxamide] | 1930 nM |
| CNC(=O)c1cnc(NC(=O)C2CC2)cc1Nc1cc(Br)c2nn3c(c2c1OC)CCC3 [Example 155, 4-((6-Bromo-9-methoxy-2,3-dihydro-1H-pyrrolo[1,2-b]indazol-8-yl)amino)-6-(cyclopropanecarboxamido)-N-methylnicotinamide] | 902 nM |
| [2H]C([2H])([2H])NC(=O)c1nnc2cc1Nc1cc(cc(-c3ccc(F)cc3)c1OC)COCc1nc(ccc1F)N2 [Example 73, 18-Fluoro-11-(4-fluorophenyl)-10-methoxy-N-(methyl-d3)-15-oxa-2,4,5,8,21-pentaazatetracyclo[15.3.1.1^{3,7}.1^{9,13}]tricosa-1(20),3,5,7(23),9(22),10,12,17(21),18-nonaene-6-carboxamide] | 7980 nM |
| CNC(=O)c1cnc(NC(=O)C2CC2)cc1Nc1ccc2nc3n(c2c1OC)CCC3 [Example 248, 6-(Cyclopropanecarboxamido)-4-((8-methoxy-2,3-dihydro-1H-benzo[d]pyrrolo[1,2-a]imidazol-7-yl)amino)-N-methylnicotinamide] | 1420 nM |
| [2H]C([2H])([2H])NC(=O)c1cnc(NC(=O)C2CC2)cc1Nc1csc2cnn(CCOCC)c(=O)c12 [Example 183, 6-(Cyclopropanecarboxamido)-4-((5-(2-ethoxyethyl)-4-oxo-4,5-dihydrothieno[2,3-d]pyridazin-3-yl)amino)-N-(methyl-d3)nicotinamide] | 710 nM |
| [2H]C([2H])([2H])NC(=O)c1cnc(NC(=O)C2CC2)cc1Nc1csc2c(Cl)cn(CC(F)(F)F)c(=O)c12 [Example 176, 4-((7-Chloro-4-oxo-5-(2,2,2-trifluoroethyl)-4,5-dihydrothieno[3,2-c]pyridin-3-yl)amino)-6-(cyclopropanecarboxamido)-N-(methyl-d3)nicotinamide] | 183 nM |
| CNC(=O)c1cnc2nc1Nc1cc(cc(-c3ncn(C)n3)c1OC)COCc1cc(cc(C(F)(F)F)c1)N2 [Example 37, 10-Methoxy-N-methyl-11-(1-methyl-1H-1,2,4-triazol-3-yl)-19-(trifluoromethyl)-15-oxa-2,4,8,23-tetraazatetracyclo[15.3.1.1^{3,7}.1^{9,13}]tricosa-1(20),3,5,7(23),9(22),10,12,17(21),18-nonaene-6-carboxamide] | 988 nM |
